Earlier results as cited in patent US20040142388A1, “Method for detecting chronic dementia diseases, and corresponding VGF peptides and detection reagents” (priority 2001, published 2004).

Test system: PC12 cell line
Settings: rat pheochomozytome cell line (PC12), stimulation with nerve growth factor

**Q.** With “NGF: important growth factor which regulates the differentiation of the peripheral and central nervous system” as the substance, how does the “increase in the concentration of VGF” value read?
**A.** Its value is 12- to 14 fold.
